Entries after “also recorded” stand apart in the source; their conditions may differ.
Experiments:
[1] = test system: A549 human NSCLC tumor xenografts; test: Antitumor activity, A549 NSCLC xenograft, two doses 21 days apart; settings: for Median Survival / Partial Tumor Regression (%) / TGD / TGD (%): two doses 21 days apart
Method: The studies were of broadly similar design. Tumor cell lines were implanted subcutaneously into the flank of nude (immunodeficient) mice and allowed to grow to a fixed size. […] In each case, where possible, doses were selected as providing equivalent levels of toxicity/tolerance. The highest doses of TD-1 were usually limited by the volume that could be administered. Tumor volume was analyzed to determine tumor growth delay (TGD) and partial regression. Mice were removed from the study if they lost 20% of their initial bodyweight or became moribund or if their tumor volume exceeded 2500 mm^3 or the tumor ulcerated. If less than half of the initial cohort of mice remained, that group was no longer graphed or included in further tumor analysis. However, any remaining animals were followed until completion of the in-life observation period and included in a survival analysis.

[2] = Tissue distribution in mice with A549 xenografts; settings: for Kidney AUC / Liver AUC / Spleen AUC / Tumor AUC: docetaxel in tissue
Method: (§1) The plasma pharmacokinetics and distribution were studied in female athymic nude mice each implanted subcutaneously with A549 cells (human non-small cell lung cancer). Once tumors reached a volume of 100-300 mm^3, animals were randomized into 4 groups.
Three animals were sacrificed at 1, 4, 24, 72 (3 days), 168 (7 days), 216 (9 days), 336 (14 days), 432 (18 days) and 504 hours (21 days) post injection. Blood samples were taken for pharmacokinetic analysis at each time point.

[3] = in vivo; settings: female, athymic nude, mouse, iv
Method: as §1
(§2) Three animals were sacrificed at 1, 4, 24, 72 (3 days), 168 (7 days), 216 (9 days), 336 (14 days), 432 (18 days) and 504 hours (21 days) post injection. Blood samples were taken for pharmacokinetic analysis at each time point. Pharmacokinetic parameters of TD-1 and docetaxel were calculated using the Phoenix WinNonLin software by non-compartment analysis modeling.

[4] = in vivo; settings: male, athymic nude, mouse, plasma, iv, 19 mg/kg
Method: (§3) The plasma pharmacokinetics and distribution were studied in male athymic nude mice each implanted subcutaneously with PC3 cells (human prostate cancer). Once tumors reached a volume of 100-300 mm^3, animals were randomized into 5 groups.
(§4) Three animals were sacrificed at 5 minutes and 1, 4, 24, 48, 72, 120 and 168 hours post injection. Blood samples were taken for pharmacokinetic analysis at each time. Pharmacokinetic parameters of TD-1 and docetaxel were calculated using the Phoenix WinNonLin software by non-compartment analysis modeling.

[5] = Tissue distribution in mice with PC3 xenografts; settings: docetaxel in tissue
Method: as §3, §4
In addition to the plasma levels and pharmacokinetic calculations described above, tissue distribution was also evaluated. Tissues harvested from each animal described in Table 5 and frozen before analysis included: tumor, liver, spleen, and kidney.

[6] = test system: A431 human epidermoid tumor xenografts; test: Antitumor activity, A431 epidermoid xenograft; type: in vivo, athymic nude mice
Method: (§5) The studies were of broadly similar design. Tumor cell lines were implanted subcutaneously into the flank of nude (immunodeficient) mice and allowed to grow to a fixed size. […] In each case, where possible, doses were selected as providing equivalent levels of toxicity/tolerance. […] Tumor volume was analyzed to determine tumor growth delay (TGD) and partial regression. Mice were removed from the study if they lost 20% of their initial bodyweight or became moribund or if their tumor volume exceeded 2500 mm^3 or the tumor ulcerated. If less than half of the initial cohort of mice remained, that group was no longer graphed or included in further tumor analysis. However, any remaining animals were followed until completion of the in-life observation period and included in a survival analysis.

[7] = test system: human A549 NSCLC tumor xenografts; test: Antitumor activity, A549 NSCLC xenograft, single dose; type: in vivo, athymic nude mice
Method: as §5

[8] = test system: HT1080/PTK7 human fibrosarcoma tumor xenografts; test: Antitumor activity, HT1080/PTK7 fibrosarcoma xenograft; type: in vivo, athymic nude mice
Method: as §5

[9] = mouse, in vivo
Method: as §1, §2

[10] = test system: MDA-MB-435/PTK7 (human breast) tumor xenografts; test: Antitumor activity, MDA-MB-435/PTK7 breast xenograft; type: in vivo, athymic nude mice
Method: as §5

[11] = test system: human A253 (Head & Neck) tumor xenografts; test: Antitumor activity, A253 head & neck xenograft; type: in vivo, athymic nude mice; settings: for TGI (%): day 31 post treatment
From the text: The studies were of broadly similar design.

[12] = Plasma pharmacokinetics in nude mice bearing PC3 xenografts; settings: single iv; for plasma docetaxel concentrations falling below the levels of detection after: free drugs
Method: as §3, §4

[13] = test system: human PC3 (prostate) tumor xenografts; test: Antitumor activity, PC3 prostate xenograft; type: in vivo, athymic nude mice; settings: docetaxel 18 and 27 mg/kg
Method: as §5

[14] = dose 19 mg/kg (docetaxel equivalent)
[15] = 30 mg/kg (docetaxel equivalent) single iv
[16] = docetaxel in plasma, dose 19 mg/kg (docetaxel equivalent)
[17] = TD-1 in plasma, dose 11 mg/kg (docetaxel equivalent)
[18] = docetaxel in plasma, dose 11 mg/kg (docetaxel equivalent)

CC(=O)O[C@@]12CO[C@@H]1C[C@H](O)[C@@]1(C)C(=O)[C@H](O)C3=C(C)[C@@H](OC(=O)[C@H](O)[C@@H](NC(=O)OC(C)(C)C)c4ccccc4)C[C@@](O)([C@@H](OC(=O)c4ccccc4)[C@H]21)C3(C)C [Docetaxel, docetaxel]
Median Survival ([1]; 18 mg/kg): 56 days | Partial Tumor Regression (%) ([1]; 18 mg/kg): 0% | TGD ([1]; 18 mg/kg): 19 | TGD (%) ([1]; 18 mg/kg): 66% | Median Survival ([1]; 27 mg/kg): 100 days | Partial Tumor Regression (%) ([1]; 27 mg/kg): 10% | TGD ([1]; 27 mg/kg): 41 | TGD (%) ([1]; 27 mg/kg): 141% | survival compared to saline ([1]; all dose levels, p<0.05): increased survival significantly compared to saline | tumor growth compared to saline ([1]; docetaxel 18 and 27 mg/kg, days 0 and 21, day 37): inhibited tumor growth; also recorded: significantly smaller tumors than saline | tumor retained measurable levels of docetaxel through ([2]; docetaxel 50 mg/kg): 216 h | tissue concentrations of docetaxel fell below the limits of quantitation after ([2]; docetaxel 50 mg/kg, most of the tissues except tumor): 24 h | Kidney AUC ([2]; dose 30 mg/kg): 28 µg·h/g | Liver AUC ([2]; dose 30 mg/kg): 10 µg·h/g | Spleen AUC ([2]; dose 30 mg/kg): 77 µg·h/g | Tumor AUC ([2]; dose 30 mg/kg): 276 µg·h/g | Kidney AUC ([2]; dose 50 mg/kg): 179 µg·h/g | Liver AUC ([2]; dose 50 mg/kg): 37 µg·h/g | Spleen AUC ([2]; dose 50 mg/kg): 162 µg·h/g | Tumor AUC ([2]; dose 50 mg/kg): 442 µg·h/g | docetaxel in liver, spleen and kidney fell below the levels of detection within ([2]; free docetaxel, after injection): ≤ 24 h | tumor docetaxel falling below the levels of quantitation (1.0 μg/g) after ([2]; intravenous injection of docetaxel): nine days | AUC(0-inf) ([3]; 30 mg/kg): 8800 ng·h/mL | Cmax ([3]; 30 mg/kg): 2700 ng/mL | Vd ([3]; 30 mg/kg): 16.1 L/kg | AUC(0-inf) ([3]; 50 mg/kg): 27000 ng·h/mL | Cmax ([3]; 50 mg/kg): 8600 ng/mL | Vd ([3]; 50 mg/kg): 37.2 L/kg | AUC [4]: 13000 ng·h/mL | Cmax [4]: 13000 ng/mL | Vd [4]: 16.1 L/kg | clearance [4]: 25 mL/min/kg | half-life [4]: 7.4 h | Kidney AUC [5, 14]: 73 µg·h/g | Liver AUC [5, 14]: 50 µg·h/g | Spleen AUC [5, 14]: 94 µg·h/g | Tumor AUC [5, 14]: 896 µg·h/g | Median Survival ([6]; 20 mg/kg single iv): 17 days | Partial Tumor Regression (%) ([6]; 20 mg/kg single iv): 63% | TGD ([6]; 20 mg/kg single iv): 13 | TGD (%) ([6]; 20 mg/kg single iv): 1408% | TGI (%) ([6]; 20 mg/kg single iv): 123% | Median Survival ([6]; 30 mg/kg single iv): 9 days | Partial Tumor Regression (%) ([6]; 30 mg/kg single iv): 50% | TGI (%) ([6]; 30 mg/kg single iv): 120% | tumor growth compared to saline ([6]; docetaxel 20 and 30 mg/kg, day 7): inhibited tumor growth; also recorded: significantly smaller tumors than saline | Median Survival ([7]; 10 mg/kg single iv): 96 days | Partial Tumor Regression (%) ([7]; 10 mg/kg single iv): 0% | TGI (%) ([7]; 10 mg/kg single iv): 0% | Partial Tumor Regression (%) ([7]; 20 mg/kg single iv): 0% | TGI (%) ([7]; 20 mg/kg single iv): 4% | Partial Tumor Regression (%) [7, 15]: 10% | TGI (%) [7, 15]: 38% | effect on tumor volumes and survival ([7]; docetaxel 10, 20, 30 mg/kg): failed to reduce A549 tumor volumes significantly or extend survival | Median Survival ([8]; 9 mg/kg single iv): 11.5 days | Partial Tumor Regression (%) ([8]; 9 mg/kg single iv): 0% | TGI (%) ([8]; 9 mg/kg single iv): 52% | Median Survival ([8]; 18 mg/kg single iv): 23 days | Partial Tumor Regression (%) ([8]; 18 mg/kg single iv): 10% | TGD ([8]; 18 mg/kg single iv): 7 | TGD (%) ([8]; 18 mg/kg single iv): 70% | TGI (%) ([8]; 18 mg/kg single iv): 31% | Median Survival ([8]; 27 mg/kg single iv): 30 days | Partial Tumor Regression (%) ([8]; 27 mg/kg single iv): 70% | TGD ([8]; 27 mg/kg single iv): 16 | TGD (%) ([8]; 27 mg/kg single iv): 160% | TGI (%) ([8]; 27 mg/kg single iv): 89% | survival ([8]; docetaxel): did not significantly increase survival | tumor growth compared to saline ([8]; docetaxel 27 mg/kg, day 14): inhibited tumor growth; also recorded: significantly smaller tumors than saline | plasma docetaxel detectable for [9]: only four hours | Median Survival ([10]; 9 mg/kg single iv): 15 days | Partial Tumor Regression (%) ([10]; 9 mg/kg single iv): 0% | TGD ([10]; 9 mg/kg single iv): 1 | TGD (%) ([10]; 9 mg/kg single iv): 9% | Median Survival ([10]; 18 mg/kg single iv): 28 days | Partial Tumor Regression (%) ([10]; 18 mg/kg single iv): 13% | TGD ([10]; 18 mg/kg single iv): 10 | TGD (%) ([10]; 18 mg/kg single iv): 91% | TGI (%) ([10]; 18 mg/kg single iv): 26% | Median Survival ([10]; 27 mg/kg single iv): 35 days | Partial Tumor Regression (%) ([10]; 27 mg/kg single iv): 38% | TGD ([10]; 27 mg/kg single iv): 18 | TGD (%) ([10]; 27 mg/kg single iv): 164% | TGI (%) ([10]; 27 mg/kg single iv): 42% | tumor growth ([10]; docetaxel 18 and 27 mg/kg): inhibited tumor growth | Median Survival ([11]; 10 mg/kg single iv): 64 days | TGD ([11]; 10 mg/kg single iv): 0 days | TGD (%) ([11]; 10 mg/kg single iv): 0% | TGI (%) ([11]; 10 mg/kg single iv): 0% | Median Survival ([11]; 20 mg/kg single iv): 62 days | TGD ([11]; 20 mg/kg single iv): 0 days | TGD (%) ([11]; 20 mg/kg single iv): 0% | TGI (%) ([11]; 20 mg/kg single iv): 0% | Median Survival [11, 15]: 73 days | TGD [11, 15]: 5 days | TGD (%) [11, 15]: 9% | TGI (%) [11, 15]: 12% | effect on tumor volumes and survival ([11]; docetaxel 10, 20, 30 mg/kg): failed to reduce A253 tumor volumes significantly or extend survival | AUC/Dose [12, 16]: 0.7 | Cmax/Dose [12, 16]: 0.7 | plasma docetaxel concentrations falling below the levels of detection after [12]: 48 h | tumor growth [13]: inhibited tumor growth | survival compared to saline ([13]; p<0.05): increased survival significantly more than saline

CC(=O)O[C@@]12CO[C@@H]1C[C@H](O)[C@@]1(C)C(=O)[C@H](O)C3=C(C)[C@@H](OC(=O)[C@H](OC(=O)CCCN4CCN(C)CC4)[C@@H](NC(=O)OC(C)(C)C)c4ccccc4)C[C@@](O)([C@@H](OC(=O)c4ccccc4)[C@H]21)C3(C)C [TD-1, 2′O-4-(4-methylpiperazin-1-yl)-butanoyl-docetaxel]
Tumor AUC ([5]; dose 11 mg/kg (docetaxel equivalent)): 314 µg·h/g | AUC [12, 17]: 5700 ng·h/mL | AUC/Dose [12, 17]: 0.4 | CL [12, 17]: 39.77 mL/min/kg | Cmax [12, 17]: 5000 ng/mL | Cmax/Dose [12, 17]: 0.4 | Vz [12, 17]: 26.01 L/kg | t1/2 [12, 17]: 7.6 h | AUC [12, 18]: 4100 ng·h/mL | AUC/Dose [12, 18]: 0.4 | CL [12, 18]: 43.18 mL/min/kg | Cmax [12, 18]: 1400 ng/mL | Cmax/Dose [12, 18]: 0.1 | Vz [12, 18]: 40.905 L/kg | t1/2 [12, 18]: 11 h | plasma docetaxel concentrations falling below the levels of detection after [12]: 48 h

— patent US20140271822A1, “MODIFIED DOCETAXEL LIPOSOME FORMULATIONS” (Mallinckrodt LLC, priority 2013, published 2014)
